According to patent US20230085307A1, “PYRIDAZINONE COMPOUND AND HERBICIDE” (NISSAN CHEMICAL CORPORATION, priority 2019, published 2023):

Tests used:
Japanese bulrush = test: Test Example 1: herbicidal activity, application before weed generation under submerged conditions (Table 16, symbol B); format: in vivo, Japanese bulrush (Schoenoplectus juncoides); conditions: 320 g/ha applied herbicide
Procedure, shortened: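 Emulsion formulation, water-diluted to set dose, was put onto the flooded surface (4 cm depth, alluvial soil) the same day weeds were sown and 2.5-leaf rice transplanted. After 3 weeks at 25-30 °C under glass, each species was rated 0 (≤5% kill) to 5 (≥90% kill).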

late watergrass = test: Test Example 2: herbicidal activity, application during weed generation under submerged conditions (Table 17, symbol A); format: in vivo, late watergrass (Echinochloa oryzicola); conditions: AAH 320 g/ha; application during weed generation, submerged conditions
Procedure, shortened: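 Mixed weed seedlings in alluvial soil under a 4 cm water layer, greenhouse-grown at 25–30° C. Compound given as a diluted emulsion into the floodwater at the 1–2 leaf stage; response graded after three weeks.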

barnyard grass [1] = test: Test Example 3: herbicidal effect by foliage application, Wagner pot (Table 18, symbol H); format: in vivo, barnyard grass (Echinochloa crus-galli); conditions: amount of applied herbicide 320 g/ha
Procedure, shortened: (§1)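 Plants were sown in alluvial soil held under 0.1–0.5 cm standing water and grown 14 days in a greenhouse at 25–30 °C. An emulsifiable formulation, water-diluted to the set dose, was then sprayed onto the foliage, and effects were scored three weeks later using previously defined criteria.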

Chinese sprangletop = test: Test Example 3: herbicidal effect by foliage application, Wagner pot (Table 18, symbol D); format: in vivo, chinese sprangletop (Leptochloa chinensis); conditions: amount of applied herbicide 320 g/ha
Procedure, shortened: as §1

southern crabgrass = test: Test Example 4: herbicidal effect by soil treatment (Table 19, symbol F); format: in vivo, southern crabgrass (Digitaria ciliaris); conditions: amount of applied herbicide 320 g/ha
Procedure, shortened: (§2)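 Scoring uses the grading scale of an earlier test, three weeks post-application. Treatment consists of spraying a diluted emulsion formulation across the surface of sterilized diluvial soil in which seeds are buried near 1.5 cm deep; boxes are kept in a greenhouse between 25° C. and 30° C.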

green foxtail = test: Test Example 4: herbicidal effect by soil treatment (Table 19, symbol G); format: in vivo, green foxtail (Setaria viridis); conditions: amount of applied herbicide 320 g/ha
Procedure, shortened: as §2

barnyard grass [2] = test: Test Example 4: herbicidal effect by soil treatment (Table 19, symbol H); format: in vivo, barnyard grass (Echinochloa crus-galli); conditions: amount of applied herbicide 320 g/ha
Procedure, shortened: as §2

blackgrass [3] = test: Test Example 4: herbicidal effect by soil treatment (Table 19, symbol J); format: in vivo, blackgrass (Alopecurus myosuroides); conditions: amount of applied herbicide 320 g/ha
Procedure, shortened: as §2

velvetleaf = test: Test Example 4: herbicidal effect by soil treatment (Table 19, symbol M); format: in vivo, velvetleaf (Abutilon theophrasti); conditions: amount of applied herbicide 320 g/ha
Procedure, shortened: as §2

redroot pigweed = test: Test Example 4: herbicidal effect by soil treatment (Table 19, symbol N); format: in vivo, redroot pigweed (Amaranthus retroflexus); conditions: amount of applied herbicide 320 g/ha
Procedure, shortened: as §2

lambsquarters [4] = test: Test Example 4: herbicidal effect by soil treatment (Table 19, symbol O); format: in vivo, lambsquarters (Chenopodium album); conditions: amount of applied herbicide 320 g/ha
Procedure, shortened: as §2

chickweed = test: Test Example 4: herbicidal effect by soil treatment (Table 19, symbol P); format: in vivo, common chickweed (Stellaria media); conditions: amount of applied herbicide 320 g/ha
Procedure, shortened: as §2

wild oat = test: Test Example 5: herbicidal effect by foliage application, plastic box (Table 20, symbol I); format: in vivo, wild oat (Avena fatua); conditions: foliage application, evaluated three weeks after application; for I: wild oat, herbicidal effect (criteria 0-5): AAH 320 g/ha
Procedure, shortened: (§3)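 Post-emergence foliar test in sterilized diluvial soil. Compound applied as water-diluted emulsion at a predetermined rate to 14-day-old plants; evaluation at three weeks.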

blackgrass [5] = test: Test Example 5: herbicidal effect by foliage application, plastic box (Table 20, symbol J); format: in vivo, blackgrass (Alopecurus myosuroides); conditions: foliage application, evaluated three weeks after application; for J: blackgrass, herbicidal effect (criteria 0-5): AAH 320 g/ha
Procedure, shortened: as §3

Italian ryegrass = test: Test Example 5: herbicidal effect by foliage application, plastic box (Table 20, symbol K); format: in vivo, Italian ryegrass (Lolium multiflorum); conditions: foliage application, evaluated three weeks after application; for K: Italian ryegrass, herbicidal effect (criteria 0-5): AAH 320 g/ha
Procedure, shortened: as §3

windgrass = test: Test Example 5: herbicidal effect by foliage application, plastic box (Table 20, symbol L); format: in vivo, windgrass (Apera spica-venti); conditions: foliage application, evaluated three weeks after application; for L: windgrass, herbicidal effect (criteria 0-5): AAH 320 g/ha
Procedure, shortened: as §3

lambsquarters [6] = test: Test Example 5: herbicidal effect by foliage application, plastic box (Table 20, symbol O); format: in vivo, lambsquarters (Chenopodium album); conditions: foliage application, evaluated three weeks after application; for O: lambsquarters, herbicidal effect (criteria 0-5): AAH 320 g/ha
Procedure, shortened: as §3

SMILES	Herbicidal effect on B: Japanese bulrush (grade 0-5) (Japanese bulrush)	herbicidal effect rating, A: late watergrass (late watergrass)	herbicidal effect on H: barnyard grass (barnyard grass [1])	herbicidal effect on D: Chinese sprangletop (Chinese sprangletop)	herbicidal effect on F: southern crabgrass (southern crabgrass)	herbicidal effect on G: green foxtail (green foxtail)	herbicidal effect on H: barnyard grass (barnyard grass [2])	herbicidal effect on J: blackgrass (blackgrass [3])	herbicidal effect on M: velvetleaf (velvetleaf)	herbicidal effect on N: redroot pigweed (redroot pigweed)	herbicidal effect on O: lambsquarters (lambsquarters [4])	herbicidal effect on P: chickweed (chickweed)	I: wild oat, herbicidal effect (criteria 0-5) (wild oat)	J: blackgrass, herbicidal effect (criteria 0-5) (blackgrass [5])	K: Italian ryegrass, herbicidal effect (criteria 0-5) (Italian ryegrass)	L: windgrass, herbicidal effect (criteria 0-5) (windgrass)	O: lambsquarters, herbicidal effect (criteria 0-5) (lambsquarters [6])	also measured
Cc1nn(C)c(=O)c(-c2c(-c3ccc(SC(C)C)cc3)sc3ccc(F)cc23)c1O [2-252]	2 (Herbicidal rate of 20% or more and less than 40%)	4 (Herbicidal rate of 70% or more and less than 90%)	5 (Herbicidal rate of 90% or more (almost completely withered))	5 (Herbicidal rate of 90% or more (almost completely withered))	2 (Herbicidal rate of 20% or more and less than 40%)	1 (Herbicidal rate of 5% or more and less than 20%)	3 (Herbicidal rate of 40% or more and less than 70%)	0 (Herbicidal rate of 5% or less (almost no effect))	2 (Herbicidal rate of 20% or more and less than 40%)	5 (Herbicidal rate of 90% or more (almost completely withered))	4 (Herbicidal rate of 70% or more and less than 90%)	5 (Herbicidal rate of 90% or more (almost completely withered))	–	–	–	–	–	herbicidal effect on I: wild oat (criteria 0-5) (wild oat; 320 g/ha): 4 (Herbicidal rate of 70% or more and less than 90%); herbicidal effect on J: blackgrass (criteria 0-5) (blackgrass [5]; 320 g/ha): 5 (Herbicidal rate of 90% or more (almost completely withered)); herbicidal effect on K: Italian ryegrass (criteria 0-5) (Italian ryegrass; 320 g/ha): 5 (Herbicidal rate of 90% or more (almost completely withered)); herbicidal effect on L: windgrass (criteria 0-5) (windgrass; 320 g/ha): 5 (Herbicidal rate of 90% or more (almost completely withered)); herbicidal effect on O: lambsquarters (criteria 0-5) (lambsquarters [6]; 320 g/ha): 5 (Herbicidal rate of 90% or more (almost completely withered))
CCCC(=O)Oc1c(C)nn(C)c(=O)c1-c1c(-c2ccc(SC(C)C)cc2)sc2ccc(F)cc12 [2-253]	3 (Herbicidal rate of 40% or more and less than 70%)	3 (Herbicidal rate of 40% or more and less than 70%)	5 (Herbicidal rate of 90% or more (almost completely withered))	3 (Herbicidal rate of 40% or more and less than 70%)	0 (Herbicidal rate of 5% or less (almost no effect))	0 (Herbicidal rate of 5% or less (almost no effect))	1 (Herbicidal rate of 5% or more and less than 20%)	0 (Herbicidal rate of 5% or less (almost no effect))	1 (Herbicidal rate of 5% or more and less than 20%)	5 (Herbicidal rate of 90% or more (almost completely withered))	4 (Herbicidal rate of 70% or more and less than 90%)	3 (Herbicidal rate of 40% or more and less than 70%)	2 (Herbicidal rate of 20% or more and less than 40%)	4 (Herbicidal rate of 70% or more and less than 90%)	3 (Herbicidal rate of 40% or more and less than 70%)	3 (Herbicidal rate of 40% or more and less than 70%)	4 (Herbicidal rate of 70% or more and less than 90%)	–
CCCC(=O)Oc1c(C)nn(C)c(=O)c1-c1c(-c2ccc(SC3CC3)cc2)sc2ccc(F)cc12 [2-255]	3 (Herbicidal rate of 40% or more and less than 70%)	4 (Herbicidal rate of 70% or more and less than 90%)	5 (Herbicidal rate of 90% or more (almost completely withered))	4 (Herbicidal rate of 70% or more and less than 90%)	0 (Herbicidal rate of 5% or less (almost no effect))	1 (Herbicidal rate of 5% or more and less than 20%)	0 (Herbicidal rate of 5% or less (almost no effect))	1 (Herbicidal rate of 5% or more and less than 20%)	3 (Herbicidal rate of 40% or more and less than 70%)	4 (Herbicidal rate of 70% or more and less than 90%)	3 (Herbicidal rate of 40% or more and less than 70%)	4 (Herbicidal rate of 70% or more and less than 90%)	5 (Herbicidal rate of 90% or more (almost completely withered))	5 (Herbicidal rate of 90% or more (almost completely withered))	5 (Herbicidal rate of 90% or more (almost completely withered))	5 (Herbicidal rate of 90% or more (almost completely withered))	4 (Herbicidal rate of 70% or more and less than 90%)	–
Cc1nn(C)c(=O)c(-c2c(-c3ccc(OC(F)F)cc3)sc3ccc(F)cc23)c1OC(=O)C1CCCC1 [2-280]	3 (Herbicidal rate of 40% or more and less than 70%)	4 (Herbicidal rate of 70% or more and less than 90%)	5 (Herbicidal rate of 90% or more (almost completely withered))	3 (Herbicidal rate of 40% or more and less than 70%)	0 (Herbicidal rate of 5% or less (almost no effect))	2 (Herbicidal rate of 20% or more and less than 40%)	3 (Herbicidal rate of 40% or more and less than 70%)	1 (Herbicidal rate of 5% or more and less than 20%)	3 (Herbicidal rate of 40% or more and less than 70%)	5 (Herbicidal rate of 90% or more (almost completely withered))	5 (Herbicidal rate of 90% or more (almost completely withered))	1 (Herbicidal rate of 5% or more and less than 20%)	3 (Herbicidal rate of 40% or more and less than 70%)	5 (Herbicidal rate of 90% or more (almost completely withered))	5 (Herbicidal rate of 90% or more (almost completely withered))	3 (Herbicidal rate of 40% or more and less than 70%)	5 (Herbicidal rate of 90% or more (almost completely withered))	–
Cc1nn(C)c(=O)c(-c2c(-c3ccc(OC(F)F)cc3)sc3ccc(F)cc23)c1OC(=O)COc1ccccc1 [2-284]	3 (Herbicidal rate of 40% or more and less than 70%)	3 (Herbicidal rate of 40% or more and less than 70%)	5 (Herbicidal rate of 90% or more (almost completely withered))	3 (Herbicidal rate of 40% or more and less than 70%)	4 (Herbicidal rate of 70% or more and less than 90%)	5 (Herbicidal rate of 90% or more (almost completely withered))	5 (Herbicidal rate of 90% or more (almost completely withered))	5 (Herbicidal rate of 90% or more (almost completely withered))	5 (Herbicidal rate of 90% or more (almost completely withered))	5 (Herbicidal rate of 90% or more (almost completely withered))	5 (Herbicidal rate of 90% or more (almost completely withered))	4 (Herbicidal rate of 70% or more and less than 90%)	4 (Herbicidal rate of 70% or more and less than 90%)	5 (Herbicidal rate of 90% or more (almost completely withered))	5 (Herbicidal rate of 90% or more (almost completely withered))	4 (Herbicidal rate of 70% or more and less than 90%)	5 (Herbicidal rate of 90% or more (almost completely withered))	–
